Reference: patent US20240238363A1 (priority 2020, published 2024)

How the values were obtained:
CXCR4 [1] = molecular target: CXCR4 (Mus musculus, UniProt P70658); conditions: FIG. 2A; CXCR4 tropic gp120; cultured mouse hippocampal neurons
Method: (§1) Aβd/t was isolated from medium of cultured 7PA2 cells, a CHO cell line expressing a form of human APP found in Familial AD. The amount of ABd/t is quantified by Western blot with standards of synthetic Aβ monomer. Neuronal cultures, fixation, permeabilization, blocking and immunostaining is performed starting with E16.5 mouse hippocampal neurons by common methods in broad use.
(§2) Images of fixed neurons immunostained for cofilin, growth cones and nuclei captured across the entire coverslip are exported to ImageJ. Macro functions are applied to set local threshold and shape/size segmentation for both the cofilin and growth cone antibodies. Cofilin stained material that is not within neurites is eliminated. Results are reported as rods/nucleus, number of rods per area, rods as percent of total area, or, if NeuN stained or identified morphologically, rods per neuron.

CXCR4 [2] = conditions: in vivo; cited from earlier work
[3] = test system: cognitive deficits in HAND; conditions: phase 2 human trials and brain scans; cited from earlier work
[4] = test system: dendritic spine morphology, dendritic arborization and functional deficits; conditions: animal model of HIV cognitive decline; cited from earlier work
[5] = test system: cofilin rods in cultured mouse hippocampal neurons; format: cell-based
Method: as §1, §2
(§3) Amyloid beta (Aβ) trimer was added to pure cultures of mouse hippocampal neurons, devoid of immune cells, microglia, and their secreted inflammatory mediators to evaluate actin dynamics and cofilin-rod formation. […] The relevance is that rod pathology leads to synapse loss in people that correlates with dementia.

[6] = test system: growth cones in pure cultures of mouse hippocampal neurons; conditions: FIG. 5; Aβ trimer-treated neurons, 2G13 antibody stain
Method: as §1, §2, §3

CCR5 [7] = molecular target: T1, CCR5 (Mus musculus, UniProt P51682); conditions: FIG. 2A; CCR5 tropic gp120; cultured mouse hippocampal neurons
Method: as §1, §2

CCR5 [8] = molecular target: T1, CCR5; conditions: pharmacologic blockade of CCR5; cited from earlier work

T1 sequence (P51682 whole entry): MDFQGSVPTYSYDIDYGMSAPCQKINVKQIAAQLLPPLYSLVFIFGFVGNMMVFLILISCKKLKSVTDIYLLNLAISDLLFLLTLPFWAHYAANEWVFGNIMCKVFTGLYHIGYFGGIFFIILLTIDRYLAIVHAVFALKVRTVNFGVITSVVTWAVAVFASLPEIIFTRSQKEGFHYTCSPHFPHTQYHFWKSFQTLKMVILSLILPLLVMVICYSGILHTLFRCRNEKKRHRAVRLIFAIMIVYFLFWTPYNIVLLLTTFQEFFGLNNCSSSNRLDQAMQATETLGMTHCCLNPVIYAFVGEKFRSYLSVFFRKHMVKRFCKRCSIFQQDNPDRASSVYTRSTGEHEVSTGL
Chain of CXCR4 (Mus musculus, UniProt P70658) (P70658 whole entry): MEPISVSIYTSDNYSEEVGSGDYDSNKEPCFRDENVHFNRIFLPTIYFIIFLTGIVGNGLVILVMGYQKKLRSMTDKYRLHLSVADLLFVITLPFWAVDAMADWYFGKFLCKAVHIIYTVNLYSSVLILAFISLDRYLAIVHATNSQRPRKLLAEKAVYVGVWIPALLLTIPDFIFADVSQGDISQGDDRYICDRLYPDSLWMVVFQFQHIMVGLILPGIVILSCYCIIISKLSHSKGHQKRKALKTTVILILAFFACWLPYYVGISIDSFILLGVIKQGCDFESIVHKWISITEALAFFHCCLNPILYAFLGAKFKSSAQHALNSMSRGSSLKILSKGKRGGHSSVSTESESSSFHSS

c1cc(CN2CCCNCCNCCCNCC2)ccc1CN1CCCNCCNCCCNCC1 [AMD3100]
inhibition of gp120-induced cofilin-rod formation through CXCR4 (CXCR4 [1]): inhibited | recovery after traumatic brain injury (CXCR4 [2]): improved recovery

Dala1-peptide T-amide [DAPTA]
cognitive deficits in HAND [3]: able to reverse cognitive deficits | dendritic spine morphology, dendritic arborization and functional deficits [4]: protection of dendritic spine morphology, expansion of dendritic arborization and reversal of functional deficits

all-D-ASTTTNYT [RAP-310]
block Aβ-induced formation of cofilin rods (percent of neurons expressing cofilin-rods) [5]: block | block TNF-induced formation of cofilin rods [5]: block

all-D-TTNYT [RAP-103]
growth cone formation [6]: promote growth cone formation | area within the neurons occupied by cofilin-rods, caused by amyloid beta (Aβ) [5]: reducing | area within the neurons occupied by cofilin-rods, caused by pre-formed fibrils (PPF) of alpha-synuclein [5]: reducing | block Aβ-induced formation of cofilin rods (percent of neurons expressing cofilin-rods) [5]: block | block TNF-induced formation of cofilin rods [5]: block | cofilin rod-like structures at the ends of dendrites [5]: eliminated

maraviroc
inhibition of gp120-induced cofilin-rod formation through CCR5 (CCR5 [7]): inhibited | dendritic spines and neurite cortical projections after stroke and traumatic brain injury (CCR5 [8]): preservation of dendritic spines and new patterns of neurite cortical projections | early pathology of synapse loss (cofilin-rod formation) induced by beta-amyloid (Aβ-trimer/dimer) ([5]; FIG. 2B, blocking neuronal CCR5): can be reversed
